Laboratory results as given in US20250221410A1, “SUBSTITUTED 2-C-AZINES AND SALTS THEREOF, AND USE THEREOF AS HERBICIDAL ACTIVE SUBSTANCES” (BAYER AKTIENGESELLSCHAFT, priority 2022, published 2025).

Key:
Format in all cases: in vivo
POAAN: Poa annua [1] = assay: Post-emergence herbicidal efficacy at 1280 g/ha, POAAN; conditions: visual rating about 3 weeks after treatment vs untreated controls
Procedure, shortened: (§1)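 Greenhouse post-emergence spray: one-leaf stage, 2–3 wk after sowing; WP/EC as aqueous suspension/emulsion + 0.5% additive, 600 L/ha water. Visual % activity vs untreated at ~3 wk; 100% = dead, 0% = as control.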

[2] = test system: ABUTH: Abutilon theophrasti; assay: Pre-emergence herbicide efficacy at 1280 g/ha, ABUTH; conditions: visual scoring after about 3 weeks vs untreated controls
Procedure, shortened: (§2)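 Weed seeds were sown and covered with soil in pots, then treated on the soil surface with formulated compound (WP or EC, 0.5% additive, 600 L/ha water). Visual % damage relative to untreated pots was rated about 3 weeks later under greenhouse conditions, 0% meaning no effect and 100% plant death.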

[3] = test system: ECHCG: Echinochloa crus-galli; assay: Pre-emergence herbicide efficacy at 1280 g/ha, ECHCG; conditions: visual scoring after about 3 weeks vs untreated controls
Procedure, shortened: as §2

[4] = test system: DIGSA: Digitaria sanguinalis; assay: Post-emergence herbicidal efficacy at 1280 g/ha, DIGSA; conditions: rated visually after about 3 weeks vs untreated controls, 100% = plants have died, 0% = like control plants
Procedure, shortened: as §1

KCHSC: Kochia scoparia [5] = assay: Post-emergence herbicidal efficacy at 1280 g/ha, KCHSC; conditions: visual rating about 3 weeks after treatment vs untreated controls
Procedure, shortened: as §1

[6] = test system: DIGSA: Digitaria sanguinalis; assay: Pre-emergence herbicide efficacy at 1280 g/ha, DIGSA; conditions: visual scoring after about 3 weeks vs untreated controls
Procedure, shortened: as §2

[7] = test system: MATIN: Matricaria inodora; assay: Pre-emergence herbicide efficacy at 1280 g/ha, MATIN; conditions: visual scoring after about 3 weeks vs untreated controls
Source text: (§3) Seeds of mono- and dicotyledonous weed plants were placed in plastic pots in sandy loam soil (doubly sown with one species each of mono- or dicotyledonous weed plants per pot) and covered with soil. The compounds of the invention, formulated in the form of wettable powders (WP) or as emulsion concentrates (EC), were then applied to the surface of the covering soil as aqueous suspension or emulsion with addition of 0.5% additive at a water application rate of 600 litres per hectare (converted). After the treatment, the pots were placed in a greenhouse and kept under good growth conditions for the test plants. After about 3 weeks, the efficacy of the preparations was scored visually in comparison with untreated controls as percentages. For example, 100% activity=the plants have died, 0% activity=like control plants. Tables C1 to C12 below show the effects of selected compounds of the general formula (I) according to Table 1 on various harmful plants and at an application rate corresponding to 1280 g/ha, which were obtained by the trial procedure specified above.

SETVI: Setaria viridis [8] = assay: Pre-emergence herbicide efficacy at 1280 g/ha, SETVI; conditions: visual scoring vs untreated controls
Procedure, shortened: as §2

KCHSC: Kochia scoparia [9] = assay: Pre-emergence herbicide efficacy at 1280 g/ha, KCHSC; conditions: visual scoring after about 3 weeks vs untreated controls
Procedure, shortened: as §2

SETVI: Setaria viridis [10] = assay: Post-emergence herbicidal efficacy at 1280 g/ha, SETVI; conditions: visual rating about 3 weeks after treatment vs untreated controls
Procedure, shortened: as §1

POAAN: Poa annua [11] = assay: Pre-emergence herbicide efficacy at 1280 g/ha, POAAN; conditions: visual scoring after about 3 weeks vs untreated controls
Procedure, shortened: as §2

[12] = test system: ABUTH: Abutilon theophrasti; assay: Post-emergence herbicidal efficacy at 1280 g/ha, ABUTH; conditions: rated visually after about 3 weeks vs untreated controls, 100% = plants have died, 0% = like control plants
Procedure, shortened: as §1

STEME: Stellaria media [13] = assay: Pre-emergence herbicide efficacy at 1280 g/ha, STEME; conditions: visual scoring vs untreated controls
Procedure, shortened: as §2

STEME: Stellaria media [14] = assay: Post-emergence herbicidal efficacy at 1280 g/ha, STEME; conditions: visual rating about 3 weeks after treatment vs untreated controls
Procedure, shortened: as §1

VERPE: Veronica persica [15] = assay: Post-emergence herbicidal efficacy at 1280 g/ha, VERPE; conditions: visual rating about 3 weeks after treatment vs untreated controls
Procedure, shortened: as §1

[16] = test system: AMARE: Amaranthus retroflexus; assay: Post-emergence herbicidal efficacy at 1280 g/ha, AMARE; conditions: rated visually after about 3 weeks vs untreated controls, 100% = plants have died, 0% = like control plants
Procedure, shortened: as §1

VERPE: Veronica persica [17] = assay: Pre-emergence herbicide efficacy at 1280 g/ha, VERPE; conditions: visual scoring vs untreated controls
Procedure, shortened: as §2

[18] = test system: AMARE: Amaranthus retroflexus; assay: Pre-emergence herbicide efficacy at 1280 g/ha, AMARE; conditions: visual scoring after about 3 weeks vs untreated controls
Procedure, shortened: as §2

LOLRI: Lolium rigidum = assay: Pre-emergence herbicide efficacy at 1280 g/ha, LOLRI; conditions: visual scoring after about 3 weeks vs untreated controls
Source text: as §3

[19] = test system: AMARE: Amaranthus retroflexus; assay: Pre-emergence herbicide efficacy at 80 g/ha, AMARE; conditions: scored visually after about 3 weeks
Procedure, shortened: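 Pre-emergence treatment: aqueous suspension or emulsion (0.5% additive, 600 l/ha water) applied at 80 g/ha to the covering soil over sown seeds. Visual percent-damage rating against untreated plants followed after about 3 greenhouse weeks, 0% meaning unaffected and 100% meaning dead.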

[20] = test system: ABUTH: Abutilon theophrasti; assay: Pre-emergence herbicide efficacy at 80 g/ha, ABUTH; conditions: scored visually after about 3 weeks
Source text: Seeds of monocotyledonous and dicotyledonous weed plants and crop plants were placed in plastic or organic planting pots and covered with soil. The compounds of the invention, formulated in the form of wettable powders (WP) or as emulsion concentrates (EC), were then applied to the surface of the covering soil as aqueous suspension or emulsion with addition of 0.5% additive at a water application rate equivalent to 600 l/ha. After the treatment, the pots were placed in a greenhouse and kept under good growth conditions for the test plants. After about 3 weeks, the efficacy of the preparations was scored visually in comparison with untreated controls as percentages. For example, 100% activity=the plants have died, 0% activity=like control plants. Tables D1 to D12 below show the effects of selected compounds of the general formula (I) according to Table 1 on various harmful plants and an application rate corresponding to 80 g/ha, which were obtained by the experimental procedure mentioned above.

[21] = test system: AMARE: Amaranthus retroflexus; assay: Post-emergence herbicidal efficacy at 80 g/ha, AMARE; conditions: visual rating about 3 weeks after treatment vs untreated controls
Procedure, shortened: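 Post-emergence spray, one-leaf stage (2–3 wk after sowing), sandy loam, greenhouse; WP/EC in water + 0.5% additive, 600 l/ha. Visual % activity vs untreated controls at ~3 wk; 100% = plants dead, 0% = like control.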

N#Cc1cccc(Cc2ncc(Cl)cn2)c1-n1cc(C(F)(F)F)cn1 [Example 1-45]
Post-emergence efficacy against POAAN (POAAN: Poa annua [1]): 90% | Pre-emergence efficacy against ABUTH [2]: 100% | Pre-emergence efficacy against ECHCG [3]: 100% | Post-emergence efficacy at 1280 g/ha against DIGSA in % [4]: 90% | Post-emergence efficacy against KCHSC (KCHSC: Kochia scoparia [5]): 100% | Pre-emergence efficacy against DIGSA [6]: 100% | Pre-emergence efficacy against MATIN [7]: 90% | Pre-emergence efficacy against SETVI in % (SETVI: Setaria viridis [8]): 100% | Pre-emergence efficacy against KCHSC (KCHSC: Kochia scoparia [9]): 100% | Post-emergence efficacy against SETVI (SETVI: Setaria viridis [10]): 90% | Pre-emergence efficacy against POAAN (POAAN: Poa annua [11]): 90% | Post-emergence efficacy at 1280 g/ha against ABUTH in % [12]: 90% | Pre-emergence efficacy against STEME in % (STEME: Stellaria media [13]): 100% | Post-emergence efficacy against STEME (STEME: Stellaria media [14]): 90% | Post-emergence efficacy against VERPE (VERPE: Veronica persica [15]): 100% | Post-emergence efficacy at 1280 g/ha against AMARE in % [16]: 100% | Pre-emergence efficacy against VERPE in % (VERPE: Veronica persica [17]): 100% | Pre-emergence efficacy against AMARE [18]: 100% | Pre-emergence efficacy against LOLRI (LOLRI: Lolium rigidum): 90% | Pre-emergence efficacy against AMARE in % [19]: 100%

Fc1ccc(Oc2ccccc2Cc2ncc(Cl)cn2)cc1 [Example 1-29]
Post-emergence efficacy against POAAN (POAAN: Poa annua [1]): 90% | Pre-emergence efficacy against ABUTH [2]: 100% | Pre-emergence efficacy against ECHCG [3]: 100% | Post-emergence efficacy at 1280 g/ha against DIGSA in % [4]: 90% | Post-emergence efficacy against KCHSC (KCHSC: Kochia scoparia [5]): 90% | Pre-emergence efficacy against DIGSA [6]: 100% | Pre-emergence efficacy against MATIN [7]: 90% | Pre-emergence efficacy against SETVI in % (SETVI: Setaria viridis [8]): 100% | Post-emergence efficacy against SETVI (SETVI: Setaria viridis [10]): 90% | Pre-emergence efficacy against POAAN (POAAN: Poa annua [11]): 100% | Post-emergence efficacy at 1280 g/ha against ABUTH in % [12]: 90% | Pre-emergence efficacy against STEME in % (STEME: Stellaria media [13]): 90% | Post-emergence efficacy against VERPE (VERPE: Veronica persica [15]): 100% | Post-emergence efficacy at 1280 g/ha against AMARE in % [16]: 90% | Pre-emergence efficacy against VERPE in % (VERPE: Veronica persica [17]): 100% | Pre-emergence efficacy against AMARE [18]: 100% | Pre-emergence efficacy against LOLRI (LOLRI: Lolium rigidum): 100%

Fc1cnc(Oc2cccc(F)c2Cc2ncc(Cl)cn2)nc1 [Example 1-52]
Pre-emergence efficacy against ABUTH [2]: 90% | Pre-emergence efficacy against ECHCG [3]: 90% | Post-emergence efficacy against KCHSC (KCHSC: Kochia scoparia [5]): 90% | Pre-emergence efficacy against DIGSA [6]: 100% | Pre-emergence efficacy against MATIN [7]: 100% | Pre-emergence efficacy against SETVI in % (SETVI: Setaria viridis [8]): 100% | Pre-emergence efficacy against KCHSC (KCHSC: Kochia scoparia [9]): 100% | Pre-emergence efficacy against POAAN (POAAN: Poa annua [11]): 100% | Pre-emergence efficacy against STEME in % (STEME: Stellaria media [13]): 100% | Pre-emergence efficacy against ABUTH in % [20]: 90% | Post-emergence efficacy against VERPE (VERPE: Veronica persica [15]): 90% | Post-emergence efficacy against AMARE [21]: 80% | Post-emergence efficacy at 1280 g/ha against AMARE in % [16]: 100% | Pre-emergence efficacy against VERPE in % (VERPE: Veronica persica [17]): 90% | Pre-emergence efficacy against AMARE [18]: 100% | Pre-emergence efficacy against AMARE in % [19]: 100%
